These results are taken from patent publication US12358879B2, “Heterocyclic compound” (Takeda Pharmaceutical Company Limited, priority 2019, dated 2025).

The assay concerns Skin fibroblasts derived from FA patients (GM4078). In words: RSL3-induced cell death inhibitory activity in skin fibroblasts derived from FA patients (ATP, CellTiter-Glo). The class given is cell-based, human. The following applies: 3 μmol/l RSL3, 24 hours. As to the method:
The effects of the compounds according to the present disclosure were evaluated according to the literature (M. G. Cotticelli et al, J Pharmacol Exp Ther 2019, 369, 47-54.).
Skin fibroblasts derived from FA patients (Coriell Institute for Medical Research, GM4078) were cultured in a culture medium consisting of DMEM (Thermo Fisher Scientific, 11995-065), 10% fetal bovine serum (Thermo Fisher Scientific, 26140-087), 1% GlutaMAX supplement (Thermo Fisher Scientific, 35050-061) and 1% Penicillin-Streptomycin solution (FUJIFILM Wako Pure Chemical Corporation, 168-23191).
For assay, the fibroblasts in the above culture medium were seeded in a 384-well plate at 1,500 cells per well, and the test compound and 3 μmol/l (final concentration) RSL3 were added to the plate the day after seeding. The concentration of the test compound added to the assay plate was 0.01, 0.1, 1 and 10 μmol/l as 4 points, and DMSO was added as a negative control for the test compound and RSL3. Twenty-four hours after the addition of RSL3/the test compound, CellTiter-Glo Luminescent Cell Viability Assay solution (Promega, G7573) was added to the plate to lyse the cells, and ATP was measured as an index of cell viability by detecting chemiluminescence with a plate reader.
RSL3-induced cell death inhibitory activity of the test compound=((X−C)/(T−C))×100 • X: ATP in the RSL3 addition/the test compound addition group, • C: ATP in the RSL3 addition/the test compound non-addition group, • T: ATP in the RSL3 non-addition/the test compound non-addition group
Background: ATP-based viability assays read luminescence as a measure of living cells.

Take `Cn1nc(Nc2cccc3c2OCC3)c2ccc(C(C)(C)O)cc21` [Example 2, 2-{3-[(2,3-dihydro-1-benzofuran-7-yl)amino]-1-methyl-1H-indazol-6-yl}propan-2-ol]: the “RSL3-induced cell death inhibitory activity (%) at each compound concentration (μmol/l)” value is 4.7% (compound 0.01 μmol/l), 71.7% (compound 0.1 μmol/l), 95.4% (compound 1 μmol/l) and 83.5% (compound 10 μmol/l).
For `Cn1cc(Nc2nn(C)c3cc(C(C)(C)O)ccc23)c(C(F)(F)F)n1` [Example 5, 2-(1-methyl-3-{[1-methyl-3-(trifluoromethyl)-1H-pyrazol-4-yl]amino}-1H-indazol-6-yl)propan-2-ol], the “RSL3-induced cell death inhibitory activity (%) at each compound concentration (μmol/l)” value runs as follows: (compound 0.01 μmol/l) 27.8%; (compound 0.1 μmol/l) 53.9%; (compound 1 μmol/l) 84.5%; (compound 10 μmol/l) 82.7%.
On the same counts, the results for `Cn1ncc(Nc2nn(C)c3cc(C(C)(C)O)ccc23)c1C(F)(F)F` [Example 9, 2-(1-methyl-3-{[1-methyl-5-(trifluoromethyl)-1H-pyrazol-4-yl]amino}-1H-indazol-6-yl)propan-2-ol] are 30.0%, 61.8%, 96.1% and 84.6%.
On the same counts, the results for `COc1cc(-c2cnn(C)c2)ccc1Nc1n[nH]c2cc(C(C)(C)O)ccc12` [Example 12, 2-{3-[2-methoxy-4-(1-methyl-1H-pyrazol-4-yl)anilino]-1H-indazol-6-yl}propan-2-ol] are 33.2%, 57.8%, 79.9% and 85.9%.
For `Cn1nc(Nc2cnn3c2CCCC3)c2ccc(C(C)(C)O)cc21` [Example 19, 2-{1-methyl-3-[(4,5,6,7-tetrahydropyrazolo[1,5-a]pyridin-3-yl)amino]-1H-indazol-6-yl}propan-2-ol], in that order: 11.1%, 32.1%, 58.9% and 78.9%.
As for `CCn1nc(Nc2cn(C)nc2OC)c2ccc(C(C)(C)O)cc21` [Example 36, 2-{1-ethyl-3-[(3-methoxy-1-methyl-1H-pyrazol-4-yl)amino]-1H-indazol-6-yl}propan-2-ol], the “RSL3-induced cell death inhibitory activity (%) at each compound concentration (μmol/l)” value reads like this: (compound 0.01 μmol/l) 14.0%; (compound 0.1 μmol/l) 28.5%; (compound 1 μmol/l) 55.8%; (compound 10 μmol/l) 86.0%.
On the same counts, the results for `COc1nn(C)cc1Nc1nn(C(C)C)c2cc(C(C)(C)O)ccc12` [Example 39, 2-{3-[(3-methoxy-1-methyl-1H-pyrazol-4-yl)amino]-1-(propan-2-yl)-1H-indazol-6-yl}propan-2-ol] are 58.0%, 66.4%, 83.0% and 93.2%.
